Test results taken from US7767671B2, “3-Quinolinecarbonitrile protein kinase inhibitors” (Wyeth, priority 2004, dated 2010).

Key:
[1] = system: Rat2 fibroblasts transformed with v-Src/Hu c-Src fusion gene; experiment: Anchorage independent Src-transformed fibroblast proliferation; type: cell-based; conditions: Rattus norvegicus, 120 h, suspension growth, MTS on Day 5, read-out: Src TF prolif IC50
Procedure: Anchorage Independent Src-transformed Fibroblast Proliferation Test Procedure: Rat2 fibroblasts stably transformed with a plasmid containing a CMV promotor controlled v-Src/Hu c-Src fusion gene in which the catalytic domain of human c-Src is inserted in place of the v-Src catalytic domain in the v-Src gene are used for the measurement of src dependent suspension growth. Ultra-low cluster plates (Costar #3474) are seeded with 10,000 cells per well on Day 1.

[2] = target: T1, Raf and/or Mek kinase (human c-Raf, GST-MEK1) (Homo sapiens, UniProt P04049+Q02750); experiment: Raf/Mek kinase cascade assay; type: biochemical; conditions: c-Raf dependent activation of GST-MEK and GST-MAPK, phospho-MAPK ELISA; (a)/(b)/(c) = average of two/three/four runs
T1 construct: Sf9 insect cell lysate containing full length 6his-tagged recombinant human c-Raf; 6His; host or cells: Sf9 insect cells (c-Raf, used as lysate); E. coli (MEK1-GST, GST-MAPK)
Procedure: Raf/Mek Kinase Cascade Assay Procedure
(Specific Activity: ˜200 U/ml). Human Non-active Mek-1-GST and human GST-MAP kinase (recombinant proteins produced in E. coli).
Stock Solutions Raf/Mek Cascade Assay:
• 1. Assay Dilution Buffer (ADB): 20 mM MOPS, pH 7.2, 25 mM β-glycerol phosphate, 5 mM EGTA, 1 mM sodium orthovanadate, 1 mM dithiothreitol; • 2. Magnesium/ATP Cocktail: 500 μM cold ATP and 75 mM magnesium chloride in ADB; • 3. Active Kinase: Human Active c-Raf: Use at 0.4 U per assay point; • 4. Non-active GST-MEK1: Use at 0.1 μg per assay point; and • 5. Non-active GST-p42 MAP Kinase: Use at 1.0 μg per assay point. Stock Solutions ELISA: • 1. TBST-Tris (50 mM, pH 7.5), NaCl (150 mM), Tween-20 (0.05%); • 2. Superblock (Pierce); • 3. Anti-GST Ab (Pharmacia); • 4. Anti-Phospho MAPK (Sigma); and • 5. Anti-Mouse Ab/Europium conjugate (Wallac). Assay Procedure: First Stage: c-Raf Dependent Activation of GST-MEK and GST-MAPK • 1. Add […] of ADB per assay (i.e. per well of a 96 well plate); • 2. Add 10 ml of 0.5 mM cold ATP and 75 mM magnesium chloride in ADB; • 3. Add 2 ml of c-Raf (0.4 U/assay), in conjunction with 1.6 ml non-active MEK1 (0.4 […]/assay); • 4. Add 4 ml of non-active GST-p42 MAP Kinase (1.0 mg/assay); • 5. Incubate for 60 minutes at 30° C. in a shaking incubator; • 6. Transfer this mixture to an anti-GST Ab coated 96 well plate (Nunc Immunosorb plates coated o/n with a-GST, then blocked with Pierce Superblock); • 7. Incubate for 60 minutes at 30° C. in a shaking incubator; • 8. Wash 3× with TBST, add Anti-Phospho MAPK (Sigma) (1:3000); • 9. Incubate for 60 minutes at 30° C. in a shaking incubator; • 10. Wash 3× with TBST, add Anti-Mouse Ab/Europium conjugate (Wallac) (1:500); • 11. Incubate for 60 minutes at 30° C. in a shaking incubator; • 12. Wash 3× with TBST, Read plates in Wallac Victor model Plate Reader; and • 13. Collect data analyze in Excel for single point and IC50 determinations.
Single point assay—% inhibition at […] (% Inhibition=1−cpd·treated sample/untreated control). IC50 determinations—done on compounds from single point assays with >80% inhibition. Typically, the Raf/Mek assay is run at compound concentrations from 10 μM to 1 nM in half log dilutions. (% inhibition is determined for each compound concentration). The results obtained measure Raf and/or Mek kinase inhibition, and for representative compounds of this invention are listed in Table 1.

[3] = target: T2, p60c-src (Homo sapiens, UniProt P12931); experiment: Src kinase test procedure (ELISA); type: biochemical; conditions: cdc2 substrate peptide, (a) = average of two runs
T2 construct: purchased Upstate Biotechnologies
Procedure: Src Kinase Test Procedure
Inhibitors of p60^c-src (partially purified preparation purchased from Upstate Biotechnologies) tyrosine kinase activity are analyzed in an Elisa format. The Boehringer Mannheim Tyrosine Kinase Assay Kit (Catalog number 1-534505) with a cdc2 substrate peptide containing Tyr15 is used for the assay. HRP-conjugated anti-phosphotyrosine is used to detect phosphorylated peptide via a color reaction. Conditions recommended by the manufacturer are employed.
Reaction conditions: Five microliter aliquots of each compound prepared fresh at the time of the assay are added as a solution in 10 mM HEPES pH 7.5, 10% DMSO to the reaction well. Thirty-five microliters of reaction mix containing Src, buffer and peptide/bovine serum albumin mix are added to the compound wells and incubated at 30° C. for 10 minutes (reaction buffer: 50 mM Tris HCl pH 7.5, 10 mM MgCl2, 0.1 mM EGTA, 0.5 mM Na3VO4). The reaction is started by addition of 10 microliters of ATP, incubated at 30° C. for 1 hour, and stopped by addition of 20 microliters of 0.5M EDTA. The reaction mixture with the phosphorylated peptide is then transferred to a streptavidin-coated microtiter plate (provided in the kit) and allowed to bind for 20 minutes. Unbound peptide and reaction mixture is decanted and the plate is washed with PBS six times. Horseradish peroxidase-conjugated phosphotyrosine antibody supplied in the kit is incubated with the plate for one hour, then decanted. The plate is again ished with PBS six times. Substrate (provided in the kit) is added and absorbance at 405 nm is measured.
Activity is determined as % inhibition as calculated by the formula: (1−Abs/Abs(max))×100=% inhibition. Where multiple concentrations of the test agent are used, an IC50 (concentration which gives 50% inhibition) could be determined.

[4] = system: LoVo; experiment: Cell based screen for inhibitors of Raf and/or Mek kinase (SRB), LoVo; parameters: species or system human; conditions: Homo sapiens, 96 h, LoVo cells, four days incubation, (a)/(b)/(c) = average of two/three/five runs
Procedure: (§1) Cell Based Screen for Inhibitors of Raf and/or Mek Kinase. Materials
Cell Lines: Human adenocarcinoma cell line LoVo, known to be growth inhibited by low nM concentrations of a reference standard inhibitor of Ras and human adenocarcinoma cell line CaCo-2, known to be growth resistant to the same reference compound.
Cell Media: RPMI 1640 with 10% Fetal Bovine Serum supplemented with L-glutamine and Penicillin/Streptomycin.
(§2) Cells are plated at 2000 cells per well for cell line LoVo and 1500 cells for cell line CaCo-2 in 96 well plates. Cells are plated in media (200 μl) and allowed to adhere overnight at 37° C. At 24 hours post plating, compounds are added directly at a volume of 0.5 μl. For the qualitative screen (compounds screened at 25 μM) compound is added directly to cells. For the quantitative screen, compound is first diluted in DMSO to generate concentrations of compound or reference standard of: 1, 5, 10 and 25 μM. It is advisable to make the dilutions in an identical 96 well plate so that compounds can be added using a multichannel micropipettor set at 0.5 μl. The cells are then incubated for four days after which the media is removed using a 12 well manifold by first tipping the plate forward at a 45 degree angle and then inserting the manifold in an upright orientation to prevent the tips of the manifold from disturbing cells at the bottom of the plate. 200 μl of normal saline is then added to each well using an 8 well multichannel pipettor, followed by the careful addition of 50 μl of 50% TCA. The plates are then incubated for 2 hours at 4° C., after which the supernatant is removed using the same technique as above and the plated cells are washed twice with 200 μl water. The plates are then air dried and 50 μl of SRB stock solution is carefully added so that the entire bottom of each well is covered. This again can be done using an 8 well multichannel pipettor. The SRB is incubated with fixed cells for 15 minutes at room temperature after which the SRB is removed with the manifold as described above and the plates washed twice with 350 μl of 1% acetic acid per well each time. The plates are then air dried after which the bound SRB is released from protein by the addition of 200 μl of Tris base. Resolubilizing the SRB is aided by placing the plates on a rotator for 15-30 minutes. The absorbance of each well is determined at 550 or 562 nm using a microtiter plate reader.
(§3) Each compound or dilution thereof is performed in triplicate. Outliers are identified by visual inspection of the data. Each plate should have a “0” control (vehicle only).
(§4) Quantitative Assay: A standard curve is constructed by plotting the concentration of compound against the average absorbance calculated at that concentration. A curve is plotted and the concentration at which the curve passes through the 50% the absorbance mark seen in the “0” control well is the IC50 calculated for that compound. Multiple entries for a given compound indicate that it is tested multiple times.

[5] = system: BxPC3; experiment: Cell based screen for inhibitors of Raf and/or Mek kinase (SRB), BxPC3; conditions: Homo sapiens, BXPC-3, BxPC3 cells, (a)/(b) = average of two/three runs
Procedure: [The procedure below names another cell line; the source lists this cell line under the same test.] as §1, §2, §3, §4

[6] = system: HT-29 cells; experiment: HT-29 cell proliferation on plastic (MTS); type: cell-based; conditions: Homo sapiens; HT-29 cells on plastic, MTS on day five; read-out: HT-29 prolif IC50
Procedure: Cell Proliferation Test Procedure for Inhibitors of Src Kinase
HT-29 cells: Compound effectiveness at inhibiting cell proliferation on plastic is performed in a 96-well format by plating 5000 cells per well in appropriate medium on day one, followed by compound addition on day 2 in serial two-fold dilutions. On day five, compound is washed away and medium containing MTS reagent (Promega) is added. Relative cell number is determined by reading the absorbance at 490 nm of a dye produced by an NAD-dependent cellular enzymatic reaction.

T1 sequence (P04049 whole entry): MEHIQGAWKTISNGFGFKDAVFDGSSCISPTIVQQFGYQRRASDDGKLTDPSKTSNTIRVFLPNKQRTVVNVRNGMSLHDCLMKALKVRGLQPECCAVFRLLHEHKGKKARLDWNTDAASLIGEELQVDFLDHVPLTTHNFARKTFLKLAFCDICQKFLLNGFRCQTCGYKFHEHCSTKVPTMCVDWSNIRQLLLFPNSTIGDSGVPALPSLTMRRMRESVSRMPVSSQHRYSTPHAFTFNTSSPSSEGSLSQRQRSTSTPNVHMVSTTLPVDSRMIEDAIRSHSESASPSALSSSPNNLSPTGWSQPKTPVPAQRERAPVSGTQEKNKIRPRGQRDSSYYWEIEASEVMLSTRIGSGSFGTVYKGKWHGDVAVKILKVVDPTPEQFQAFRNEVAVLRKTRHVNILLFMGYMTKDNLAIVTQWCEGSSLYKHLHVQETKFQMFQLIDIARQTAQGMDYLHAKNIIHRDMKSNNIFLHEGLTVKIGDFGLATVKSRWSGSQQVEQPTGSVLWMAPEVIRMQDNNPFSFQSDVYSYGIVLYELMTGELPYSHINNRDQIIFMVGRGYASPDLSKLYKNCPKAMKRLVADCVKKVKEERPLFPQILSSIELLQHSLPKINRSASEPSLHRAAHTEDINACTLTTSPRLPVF
T1 sequence (Q02750 whole entry): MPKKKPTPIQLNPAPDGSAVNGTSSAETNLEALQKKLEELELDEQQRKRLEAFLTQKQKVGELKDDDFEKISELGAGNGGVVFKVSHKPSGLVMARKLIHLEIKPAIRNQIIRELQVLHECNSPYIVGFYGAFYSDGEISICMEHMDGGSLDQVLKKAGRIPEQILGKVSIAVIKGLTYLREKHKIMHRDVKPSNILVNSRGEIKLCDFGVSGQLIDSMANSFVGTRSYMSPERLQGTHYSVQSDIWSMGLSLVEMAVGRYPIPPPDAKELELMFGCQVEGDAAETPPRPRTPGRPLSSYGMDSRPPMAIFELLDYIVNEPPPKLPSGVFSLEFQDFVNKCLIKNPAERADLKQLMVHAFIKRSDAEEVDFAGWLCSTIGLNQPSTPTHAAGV
T2 sequence (P12931 whole entry): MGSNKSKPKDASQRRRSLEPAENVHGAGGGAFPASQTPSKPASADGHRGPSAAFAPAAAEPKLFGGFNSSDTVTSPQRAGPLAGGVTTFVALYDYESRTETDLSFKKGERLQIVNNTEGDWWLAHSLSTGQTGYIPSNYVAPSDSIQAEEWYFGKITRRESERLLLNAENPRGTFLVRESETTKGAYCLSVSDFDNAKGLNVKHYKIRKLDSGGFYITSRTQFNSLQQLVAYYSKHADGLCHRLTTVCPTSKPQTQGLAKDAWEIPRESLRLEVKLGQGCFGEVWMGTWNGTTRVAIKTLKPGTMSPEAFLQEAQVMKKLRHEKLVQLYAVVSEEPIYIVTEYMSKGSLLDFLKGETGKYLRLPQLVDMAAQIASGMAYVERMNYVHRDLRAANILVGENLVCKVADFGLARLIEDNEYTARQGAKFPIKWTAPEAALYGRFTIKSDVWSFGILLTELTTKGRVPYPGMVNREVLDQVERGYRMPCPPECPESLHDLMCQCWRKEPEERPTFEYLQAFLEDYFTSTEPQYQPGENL

| Compound | IC50 [1] [nM] | melting point [°C] | IC50 [2] [nM] | IC50 [3] [nM] | IC50 [4] [nM] | IC50 [5] [nM] | IC50 [6] [nM] |
| --- | --- | --- | --- | --- | --- | --- | --- |
| COc1cc(Nc2c(C#N)cnc3cc(N4CCC(N5CCCC5)CC4)c(OC)cc23)c(Cl)cc1Cl [Example 31, 4-[(2,4-dichloro-5-methoxyphenyl)amino]-6-methoxy-7-(4-pyrrolidin-1-ylpiperidin-1-yl)quinoline-3-carbonitrile] | 2400 | 225 to 227 | – | – | – | – | – |
| COc1cc2c(Nc3ccc(Sc4nccn4C)c(Cl)c3)c(C#N)cnc2cc1N1CCC(N2CCCC2)CC1 [Example 11, 4-({3-chloro-4-[(1-methyl-1H-imidazole-2-yl)thio]phenyl}amino)-6-methoxy-7-(4-pyrrolidin-1-ylpiperidin-1-yl)quinoline-3-carbonitrile] | – | 225 to 229 | 114 | 281 | 29 | 42 | – |
| COc1cc2c(Nc3ccc(Sc4ccccn4)c(Cl)c3)c(C#N)cnc2cc1N1CCC(N2CCCC2)CC1 [Example 14, 4-[3-Chloro-4-(pyridin-2-ylsulfanyl)-phenylamino]-6-methoxy-7-(4-pyrrolidin-1-yl-piperidin-1-yl)-quinoline-3-carbonitrile] | – | 203 to 205 | 795 | – | 370 | 300 | – |
| COc1cc2c(Nc3ccc(Sc4nccn4C)c(Cl)c3)c(C#N)cnc2cc1N1CCC(N2CCN(C)CC2)CC1 [Example 20, 4-({3-Chloro-4-[(1-methyl-1H-imidazole-2-yl)thio]phenyl}amino)-6-methoxy-7-[4-(4-methylpiperazin-1-yl)piperidin-1-yl]quinoline-3-carbonitrile] | – | 235 to 237 | 293 | – | 22 | 38 | – |
| COc1cc(Nc2c(C#N)cnc3cc(OCCCN4CCC(N5CCCCC5)CC4)c(OC)cc23)c(Cl)cc1Cl [Example 35, 7-(3-[1,4′-Bipiperidin]-1′-ylpropoxy)-4-[(2,4-dichloro-5-methoxyphenyl)amino]-6-methoxy-3-quinolinecarbonitrile] | 140 | 130 to 132 | – | 1 | – | – | 2700 |
| COc1cc2c(Nc3ccc(Sc4nccn4C)c(Cl)c3)c(C#N)cnc2cc1OCCCN1CCC(N2CCCC2)CC1 [Example 33, 4-{3-Chloro-4-[(1-methyl-1H-imidazole-2-yl)sulfanyl]anilino}-6-methoxy-7-{3-[4-(1-pyrrolidinyl)-1-piperidinyl]propoxy}-3-quinolinecarbonitrile] | – | 196 to 198 | 3 | – | 47 | 49 | – |
| Cn1ccnc1Sc1ccc(Nc2c(C#N)cnc3cc(N4CCC(N5CCCC5)CC4)ccc23)cc1Cl [Example 16] | – | 125 to 130 | 35 | – | 9 | 30 | – |
| COc1cc2c(Nc3ccc(Oc4cccnc4)cc3)c(C#N)cnc2cc1N1CCC(N2CCCC2)CC1 [Example 15, 6-Methoxy-4-[4-(pyridin-3-yloxy)-phenylamino]-7-(4-pyrrolidin-1-yl-piperidin-1-yl)-quinoline-3-carbonitrile] | – | 194 to 196 | 1720 | – | 261 | 360 | – |
| CC(=O)Nc1cc2c(Nc3ccc(Sc4nccn4C)c(Cl)c3)c(C#N)cnc2cc1N1CCC(N2CCCC2)CC1 [Example 29, N-[4-({3-Chloro-4-[(1-methyl-1H-imidazole-2-yl)thio]phenyl}amino)-3-cyano-7-(4-pyrrolidin-1-ylpiperidin-1-yl)quinolin-6-yl]acetamide] | – | 243 to 255 | 1640 | – | 4 | 8 | – |
